Here are results for two compounds from ChEMBL document CHEMBL1156091, “Stereoselective total synthesis of a potent natural antifungal compound (6S)-5,6,dihydro-6-[(2R)-2-hydroxy-6-phenyl hexyl]-2H-pyran-2-one” (2009).

The experiment deals with Cladosporium cucumerinum. Put plainly: Antifungal activity against phytopathogenic Cladosporium cucumerinum by bioautographic TLC assay. The class given is functional.

`O=C1C=CC[C@@H](C[C@H](O)CCCCc2ccccc2)O1` gave an MIC of 1 µg.

Compound `Clc1ccc(COC(Cn2ccnc2)c2ccc(Cl)cc2Cl)c(Cl)c1` (configuration not stated) [MICONAZOLE] yielded an MIC of 1 µg.
